Assay results as given in patent US8426469B2, “Crystalline leukotriene B4” (LTB4 Sweden AB, priority 2006, dated 2013).
“Also recorded” adds a separate entry of the source.

What was measured:
[1] = solubility of LTB4 in various solvents; format: physicochemical; conditions: Table 1; the value is the solvent
Excerpt: Table 1 below summarizes the solubility of LTB4 in various solvents.

[2] = stability of leukotriene B4 as a function of pH; format: physicochemical; conditions: alkaline pH versus neutral or acidic pH
Excerpt: Accordingly, in a preferred embodiment, the composition according to the present invention comprises an alkaline reacting carrier. The expression “alkaline reacting carrier”, in the context of the present invention, is intended to include an otherwise inert, pharmaceutically acceptable substance (or substances), which creates an alkaline “micro-pH” between 8.2 and 14, especially between 8.5 and 12.5, such as between 8.5 and 11.5, most preferably between 9.5 and 11.5, such as about 9.5, 9.6, 9.7, 9.8, 9.9, 10.0, 10.1, 10.2, 10.3, 10.4, 10.5, 10.6, 10.7, 10.8, 10.9, 11.0, 11.1, 11.2, 11.3, 11.4, or 11.5, around each LTB4 particle when water is adsorbed to the particles of the mixture or when water is added in small amounts to the mixture. In another preferred embodiment, the alkaline “micro-pH” ranges between 8.0 and 9.0, between 8.5 and 9.5, between 9.0 and 10.0, or between 10.0 and 11.5. […]

[3] = pH 7.0-7.6, stored at 2° C. to 25° C. (and above 25° C.); cited from earlier work

Which “Slightly soluble or insoluble (solvent in which LTB4 is slightly soluble or insoluble; anti-solvent)” value [1] does the source give for CCCCC/C=C\C[C@@H](O)/C=C/C=C/C=C\[C@@H](O)CCCC(=O)O [LTB4, 5S,12R-dihydroxy-6,8,10,14(Z,E,E,Z)-eicosatetraenoic acid] here?
Its value is “Toluene; also recorded: Water; also recorded: Heptane”.

And the “stability depending on pH” value [2]?
The value was “more stable at alkaline pH than at neutral or acidic pH”.

And the “stability of isotonic aqueous solution” value [3]?
The value was “stable for only short periods of time (weeks to months)”.
